Source: US20140343105A1, “NOVEL ORALLY ADMINISTERED DABIGATRAN FORMULATION” (BOEHRINGER INGELHEIM INTERNATIONAL GMBH, priority 2012, published 2014)
Converted amounts (≈) assume the structure as drawn.

Key:
[1] = Solubility of the active ingredient (DS) in cyclodextrin solutions at various pH values (UV/VIS); type: physicochemical
Experimental: Dabigatranetexilat methanesulphonate is tested for its solubility in dependency of the presence of various cyclodextrins at various ph values as follows:
(§1) 2 ml Eppendorf tubes can be filled with about 1.8 ml aqueous solution with a selected pH value. The volume used for the screening is 1.8 ml. The molar amount of cyclodextrin (CD) in the given volume is calculated for the given CD concentration. For a given molar ratio of active ingredient DS/CD the amount of active ingredient (DS) is calculated. Normally, a molar ratio of DS/CD=1/1 is targeted: 1 mol DS and 1 mol CD. As precise as possible, the calculated amount of DS is weighted into the tube exactly. The actual amount is reported.
(§2) According to the actual amount of DS the necessary volume of CD solution is calculated. As precise as possible, the requested volume of CD solution is pipetted into the tube. The actual volume pipetted is reported. The solution in the tube is placed on an Eppendorf Vario shaker. The solution is intensively shaken by means of ultrasound (Hielscher Ultrasound Processor) for 10 seconds at the maximum. It is payed attention to heat generation and overheating has to be avoided.
(§3) The tube is shaken for 1 hour in the Eppendorf Thermomixer at the given temperature and at 800 rpm. Subsequently, the pH value is checked and the given pH value adjusted accordingly, if necessary. The tube is shaken for 24 hours in the Eppendorf Thermomixer at the given temperature and at 800 rpm.
Eppendorf tubes are centrifuged for about 15 minutes at the given temperature, but at 40° C. at the maximum (max. temperature of the centrifuge), and 14,000 rpm. In case no clear supernatant is obtained centrifugation is repeated with adjusted rpm (revolutions per minute) and time. […]
(§4) The clear supernatant or filtrate is used for the analysis of the concentration. The pH value of the clear solution is analysed. The DS concentration of the clear solution is measured by UV/VIS spectroscopy (e.g., Hewlett-Packard 8453 UV/Visible Spectrophotometer).

[2] = Solubility of DS in presence of hydrophilic polymers (CMC-Na) and cyclodextrins; type: physicochemical
Experimental: as §1, §2, §3
Eppendorf tubes are centrifuged for about 15 minutes at the given temperature, but at 40° C. at the maximum (max. temperature of the centrifuge), and 14,000 rpm. In case no clear supernatant is obtained centrifugation is repeated with adjusted rpm (revolutions per minute) and time. In case the supernatant is not clear and a filtration step is necessary the content of the tube is sucked or poured into 2 ml single use syringe. The supernatant is filtered through a 0.2 μm filter (Pall GHP Acrodisc 13 mm Syringe Filter 0.2 μm pore size). About 2-3 drops of the solution are discarded. The rest of the volume is collected in a second tube. If temperatures above room temperature (about 22° C.) are given, filters and tubes have to be tempered at that temperature prior to use.
as §4
DS, especially Dabigatranetexilat methanesulphonate, is tested for its solubility in dependency of the presence of various hydrophilic polymers and various cyclodextrins whereby the hydrophilic polymer is added to the aqueous solution before adding the DS.

CCCCCCOC(=O)NC(=N)c1ccc(NCc2nc3cc(C(=O)N(CCC(=O)OCC)c4ccccn4)ccc3n2C)cc1 [DS, dabigatran etexilate]
effect of cyclodextrins on solubility of the active ingredient ([1]; all cyclodextrins tested, various pH values): significantly improve the solubility | solubility at 24 h ([1]; aqueous α-cyclodextrin solution, aqueous with cosolvent or surfactant or cyclodextrin, thermodynamic from solid, 10% (w/v) α-CD solution at pH 3): ~43 mg/mL (≈ 68.5 mM) | mol α-CD necessary to complex 1 mol API ([1]; α-CD 10% (w/v)): About 1.7 mol | increase of the solubility of the DS and of the drug load DS/CD ([2]; addition of 0.05% to 0.5% of CMC-Na, α-CD 10% (w/v)): up to 11% | complexation efficiency of the CD ([2]; addition of a hydrophilic polymer before adding the DS): significantly improved | solubility at 24 h ([2]; aqueous α-cyclodextrin solution with CMC-Na, aqueous with cosolvent or surfactant or cyclodextrin, thermodynamic from solid, 14% α-CD solution at pH 3 with 0.25% CMC-Na): ~67.3 mg/mL | g α-CD to complex 1 g API ([2]; α-CD, CMC-Na added): ≈ 2.1 g | mol α-CD necessary to complex 1 mol API ([2]; α-CD, CMC-Na added): About 1.6 mol
